In patent US8187278B2, “Photodynamic cellular and acellular organism eradication utilizing a photosensitive material and benzalkonium chloride” (Advanced Photodynamic Technologies, Inc., priority 1998, dated 2012):
Read-outs that look alike come from different tables or passages of the source.

What was measured:
[1] = cited from earlier work
[2] = system: several species of bacteria; assay: photoeradication using methylene blue mediated PDT and the surfactant benzalkonium chloride (FIG. 2), qualitative colony count; type: cell-based; conditions: diode laser about 664 nm, 100 mw/cm^2, 30 to 40 J/cm^2; methylene blue 0 to 100 μg/ml, benzalkonium chloride 0 to 0.01%; topically applied
Source text: One particular treatment protocol according to the present invention utilizes the photosensitive material methylene blue and surfactant benzalkonium chloride. Benzalkonium chloride concentrations from 0.001% to 0.5% have been identified as advantageous in the destruction of certain microorganisms, such as Candida albicans, Escherechia coli, Pseudomonas aeruginosa, Staphylococcus aureus, Klebsellia, Serratia,Haemophilus influenza, and Streptococcus pneumoniae. Reference may be made to FIG. 2, which illustrates a schedule of investigation results. […] The laser used for illumination was a diode laser. Methylene blue concentrations ranged from 0 to 100 μg/ml. Benzalkonium chloride concentrations ranged from 0 to 0.01%. The combined solution was topically applied at the cell site. A light dosage rate was 100 mw/cm^2. Light dosages ranged from 30 to 40 J/cm^2. A qualitative colony count relates particular colony counts to an associated score.

[3] = cited from earlier work; remark: listed apart in the source

Row | Compound | toxic effects on administration in high doses ([1]; humans, orally and intravenously, high doses) | tissue toxicity ([1]; in vivo) | sensitization of bacteria to killing by laser irradiation [2] | yield of the singlet oxygen generation ([3]; pH 5) | yield of the singlet oxygen generation ([3]; pH 9)
1 | CN(C)c1ccc2nc3ccc(=[N+](C)C)cc-3sc2c1 [methylene blue] | without any toxic effects | very low tissue toxicity | alone neither the surfactant nor the photosensitizing agent sensitized the bacteria to killing by laser irradiation | 0.2 | 0.94
2 | alkyl dimethyl benzylammonium chloride [benzalkonium chloride] | – | – | alone neither the surfactant nor the photosensitizing agent sensitized the bacteria to killing by laser irradiation | – | –
